Laboratory results from PubChem BioAssay AID248 (DTP/NCI, 2004).
Values joined by “and” are separate entries in the source; they are usually repeats but may differ in a detail not shown here. Identical values can stand only once. Inconclusive results and toxic doses are left out.

System: L1210 leukemia ip in BDF1 mice, survival T/C
Experiment: NCI In Vivo Anticancer Drug Screen. Data for tumor model L1210 Leukemia (intraperitoneal) in B6D2F1 (BDF1) mice
Conditions: endpoint: mean survival time, higher = longer survival
Procedure, shortened: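 In this screen, tumor-bearing mice given compound are compared to those given vehicle, and their survival values are reported as a treated-to-control quotient.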

[1] = dose: 100.0 mg/kg/injection, schedule: Q04DX002 (ip), vehicle: Klucel (hydroxypropylcellulose) (HPC)
[2] = dose: 200.0 mg/kg/injection, schedule: Q04DX002 (ip), vehicle: Klucel (hydroxypropylcellulose) (HPC)
[3] = dose: 50.0 mg/kg/injection, schedule: Q01DX009 (ip), vehicle: saline
[4] = dose: 100.0 mg/kg/injection, schedule: Q01DX009 (ip), vehicle: saline
[5] = dose: 100.0 mg/kg/injection, schedule: Q04DX003 (ip), vehicle: saline
[6] = dose: 200.0 mg/kg/injection, schedule: Q01DX009 (ip), vehicle: saline
[7] = dose: 200.0 mg/kg/injection, schedule: Q04DX003 (ip), vehicle: saline
[8] = dose: 100.0 mg/kg/injection, schedule: Q01DX009 (ip), vehicle: Klucel (hydroxypropylcellulose) (HPC)
[9] = dose: 100.0 mg/kg/injection, schedule: Q04DX003 (ip), vehicle: Klucel (hydroxypropylcellulose) (HPC)
[10] = dose: 200.0 mg/kg/injection, schedule: Q01DX009 (ip), vehicle: Klucel (hydroxypropylcellulose) (HPC)
[11] = dose: 200.0 mg/kg/injection, schedule: Q04DX003 (ip), vehicle: Klucel (hydroxypropylcellulose) (HPC)
[12] = dose: 100.0 mg/kg/injection, schedule: Q01DX001 (ip), vehicle: Klucel (hydroxypropylcellulose) (HPC)
[13] = dose: 200.0 mg/kg/injection, schedule: Q01DX001 (ip), vehicle: Klucel (hydroxypropylcellulose) (HPC)

O=NN(CCCl)C(=O)Nc1ccc(CCCl)cc1
T/C (dose: 10.0 mg/kg/injection, schedule: Q01DX001 (ip), vehicle: carboxymethylcellulose (CMC)): 161 % of control | T/C (dose: 20.0 mg/kg/injection, schedule: Q01DX001 (ip), vehicle: carboxymethylcellulose (CMC)): 152 % of control | T/C (dose: 33.0 mg/kg/injection, schedule: Q01DX001 (ip), vehicle: carboxymethylcellulose (CMC)): 246 % of control | T/C (dose: 33.0 mg/kg/injection, schedule: Q01DX009 (ip), vehicle: carboxymethylcellulose (CMC)): 107 % of control | T/C (dose: 50.0 mg/kg/injection, schedule: Q01DX001 (ip), vehicle: carboxymethylcellulose (CMC)): 216 % of control | T/C (dose: 50.0 mg/kg/injection, schedule: Q01DX009 (ip), vehicle: carboxymethylcellulose (CMC)): 87 % of control

CCN(CC)CCN1C(=O)[C@H]2CC=CC[C@H]2C1=O
T/C (dose: 44.0 mg/kg/injection, schedule: Q01DX Z (ip), vehicle: saline): 111 % of control | T/C (dose: 66.0 mg/kg/injection, schedule: Q01DX Z (ip), vehicle: saline): 100 % of control | T/C (dose: 100.0 mg/kg/injection, schedule: Q01DX Z (ip), vehicle: saline): 98 % of control

CS(=O)(=O)OCC(=O)NCCCNC(=O)COS(C)(=O)=O
T/C (dose: 17.5 mg/kg/injection, schedule: Q01DX013 (ip), vehicle: other): 123 % of control | T/C (dose: 18.8 mg/kg/injection, schedule: Q01DX015 (ip), vehicle: saline): 122 % of control | T/C (dose: 35.0 mg/kg/injection, schedule: Q01DX013 (ip), vehicle: other): 121 % of control | T/C (dose: 54.0 mg/kg/injection, schedule: Q01DX009 (ip), vehicle: saline): 166 % of control | T/C (dose: 75.0 mg/kg/injection, schedule: Q01DX015 (ip), vehicle: saline): 155 % of control | T/C (dose: 80.0 mg/kg/injection, schedule: Q01DX009 (ip), vehicle: saline): 175 % of control | T/C (dose: 120.0 mg/kg/injection, schedule: Q01DX009 (ip), vehicle: saline): 202 % of control | T/C (dose: 150.0 mg/kg/injection, schedule: Q01DX015 (ip), vehicle: saline): 150 % of control | T/C (dose: 180.0 mg/kg/injection, schedule: Q01DX009 (ip), vehicle: saline): 164 % of control and 195 % of control | T/C (dose: 256.0 mg/kg/injection, schedule: Q01DX009 (ip), vehicle: saline): 118 % of control

CC(C)(C)c1cc(C(C)(C)C)c(O)c(C(C)(C)C)c1
T/C (dose: 100.0 mg/kg/injection, schedule: Q01DX001 (ip), vehicle: saline with Tween-80): 91 % of control | T/C (dose: 100.0 mg/kg/injection, schedule: Q01DX009 (ip), vehicle: saline with Tween-80): 92 % of control | T/C (dose: 100.0 mg/kg/injection, schedule: Q04DX003 (ip), vehicle: saline with Tween-80): 98 % of control | T/C (dose: 200.0 mg/kg/injection, schedule: Q01DX001 (ip), vehicle: saline with Tween-80): 95 % of control | T/C (dose: 200.0 mg/kg/injection, schedule: Q01DX009 (ip), vehicle: saline with Tween-80): 96 % of control | T/C (dose: 200.0 mg/kg/injection, schedule: Q04DX003 (ip), vehicle: saline with Tween-80): 98 % of control | T/C (dose: 400.0 mg/kg/injection, schedule: Q01DX001 (ip), vehicle: saline with Tween-80): 87 % of control | T/C (dose: 400.0 mg/kg/injection, schedule: Q01DX009 (ip), vehicle: saline with Tween-80): 93 % of control | T/C (dose: 400.0 mg/kg/injection, schedule: Q04DX003 (ip), vehicle: saline with Tween-80): 93 % of control

O=C(Nc1ccccn1)Nc1cccc2ccccc12
T/C [1]: 103 % of control | T/C [2]: 97 % of control | T/C (dose: 400.0 mg/kg/injection, schedule: Q04DX002 (ip), vehicle: Klucel (hydroxypropylcellulose) (HPC)): 87 % of control

O=CNNC(=O)c1ccccn1
T/C (dose: 50.0 mg/kg/injection, schedule: Q01DX001 (ip), vehicle: water): 108 % of control | T/C [3]: 98 % of control | T/C (dose: 50.0 mg/kg/injection, schedule: Q04DX003 (ip), vehicle: saline): 100 % of control | T/C (dose: 100.0 mg/kg/injection, schedule: Q01DX001 (ip), vehicle: water): 108 % of control | T/C [4]: 101 % of control | T/C [5]: 96 % of control | T/C [6]: 114 % of control | T/C [7]: 109 % of control

Cc1ccc(NC(=O)Nc2ccc(Cl)c(Cl)c2)cc1Cl
T/C [8]: 97 % of control | T/C [9]: 93 % of control | T/C [10]: 87 % of control | T/C [11]: 96 % of control | T/C (dose: 400.0 mg/kg/injection, schedule: Q01DX009 (ip), vehicle: Klucel (hydroxypropylcellulose) (HPC)): 92 % of control | T/C (dose: 400.0 mg/kg/injection, schedule: Q04DX003 (ip), vehicle: Klucel (hydroxypropylcellulose) (HPC)): 91 % of control

O=C(O)/C=C/c1ccc([N+](=O)[O-])s1
T/C [1]: 90 % of control | T/C [2]: 90 % of control

CC(=O)Nc1ccc(S(C)(=O)=O)cc1I
T/C (dose: 100.0 mg/kg/injection, schedule: Q01DX001 (ip), vehicle: carboxymethylcellulose (CMC)): 93 % of control | T/C (dose: 200.0 mg/kg/injection, schedule: Q01DX001 (ip), vehicle: carboxymethylcellulose (CMC)): 96 % of control | T/C (dose: 400.0 mg/kg/injection, schedule: Q01DX001 (ip), vehicle: carboxymethylcellulose (CMC)): 91 % of control

Cc1ccc(Cl)cc1NC(=O)NCCCl
T/C [9]: 113 % of control | T/C [11]: 93 % of control

C/C=C1/C[N+]2(C)CCC34C(=C(C(=O)OC)C1CC32)Nc1ccc(O)cc14 (configuration not stated)
T/C (dose: 6.25 mg/kg/injection, schedule: Q01DX001 (ip), vehicle: saline with Tween-80): 97 % of control | T/C (dose: 12.5 mg/kg/injection, schedule: Q01DX001 (ip), vehicle: saline with Tween-80): 102 % of control | T/C (dose: 25.0 mg/kg/injection, schedule: Q01DX001 (ip), vehicle: saline with Tween-80): 96 % of control

N#CCCNC(=O)N(CCC#N)N=O
T/C (dose: 3.12 mg/kg/injection, schedule: Q01DX Z (ip), vehicle: carboxymethylcellulose (CMC)): 100 % of control | T/C (dose: 6.25 mg/kg/injection, schedule: Q01DX Z (ip), vehicle: carboxymethylcellulose (CMC)): 102 % of control | T/C (dose: 12.5 mg/kg/injection, schedule: Q01DX Z (ip), vehicle: carboxymethylcellulose (CMC)): 103 % of control | T/C (dose: 25.0 mg/kg/injection, schedule: Q01DX Z (ip), vehicle: carboxymethylcellulose (CMC)): 118 % of control | T/C (dose: 75.0 mg/kg/injection, schedule: Q01DX Z (ip), vehicle: carboxymethylcellulose (CMC)): 153 % of control | T/C (dose: 100.0 mg/kg/injection, schedule: Q01DX Z (ip), vehicle: carboxymethylcellulose (CMC)): 118 % of control | T/C (dose: 150.0 mg/kg/injection, schedule: Q01DX Z (ip), vehicle: carboxymethylcellulose (CMC)): 155 % of control | T/C (dose: 200.0 mg/kg/injection, schedule: Q01DX Z (ip), vehicle: carboxymethylcellulose (CMC)): 116 % of control

O=C(NCc1ccncc1)Nc1ccccc1F
T/C [12]: 93 % of control | T/C [8]: 100 % of control | T/C [1]: 94 % of control and 103 % of control | T/C [9]: 94 % of control | T/C [13]: 104 % of control | T/C [10]: 98 % of control and 105 % of control | T/C [2]: 101 % of control and 91 % of control | T/C [11]: 97 % of control

CCC1CC2CN3CCc4c([nH]c5ccccc45)C(C(=O)OC)(C2)C13 (configuration not stated)
T/C (dose: 75.0 mg/kg/injection, schedule: Q01DX001 (ip), vehicle: other): 96 % of control | T/C (dose: 150.0 mg/kg/injection, schedule: Q01DX001 (ip), vehicle: other): 105 % of control

Cc1ccc(C)c(N2C(=O)C(=O)N(c3cc(C)ccc3C)P2(=O)N(CCCl)CCCl)c1
T/C (dose: 18.0 mg/kg/injection, schedule: Q01DX Z (ip), vehicle: carboxymethylcellulose (CMC)): 101 % of control | T/C (dose: 36.0 mg/kg/injection, schedule: Q01DX Z (ip), vehicle: carboxymethylcellulose (CMC)): 90 % of control | T/C (dose: 72.0 mg/kg/injection, schedule: Q01DX Z (ip), vehicle: carboxymethylcellulose (CMC)): 93 % of control | T/C (dose: 145.0 mg/kg/injection, schedule: Q01DX Z (ip), vehicle: carboxymethylcellulose (CMC)): 96 % of control

OCC1c2ccccc2C(CO)c2c1ccc1ccccc21 (configuration not stated)
T/C [12]: 98 % of control | T/C [13]: 98 % of control | T/C (dose: 400.0 mg/kg/injection, schedule: Q01DX001 (ip), vehicle: Klucel (hydroxypropylcellulose) (HPC)): 100 % of control

NC(CCSC(c1ccccc1)(c1ccccc1)c1ccccc1)C(=O)O (configuration not stated)
T/C [3]: 94 % of control and 103 % of control | T/C [4]: 95 % of control and 107 % of control | T/C [6]: 97 % of control and 106 % of control | T/C (dose: 400.0 mg/kg/injection, schedule: Q01DX009 (ip), vehicle: saline): 100 % of control and 108 % of control

CCOC(=O)C1=C(C)NC(C)=C(C(=O)OCC)C1c1ccccc1Cl
T/C [5]: 97 % of control | T/C [7]: 117 % of control | T/C (dose: 400.0 mg/kg/injection, schedule: Q04DX003 (ip), vehicle: saline): 87 % of control
